ChEMBL document CHEMBL1145498, “A systematic interaction map of validated kinase inhibitors with Ser/Thr kinases” (Proc Natl Acad Sci U S A, 2007)

Columns and labels:
[1] = molecular target: Dual specificity mitogen-activated protein kinase kinase 2 (Homo sapiens, UniProt P36507)
[2] = molecular target: Cyclin-dependent kinase-like 1 (Homo sapiens) (UniProt Q00532)
[3] = molecular target: Cyclin-dependent kinase 2 (Homo sapiens, UniProt P24941)
[4] = molecular target: Casein kinase I isoform gamma-2 (Homo sapiens) (UniProt P78368)
[5] = molecular target: Calcium/calmodulin-dependent protein kinase type II subunit delta (Homo sapiens) (UniProt Q13557)
[6] = molecular target: Serine/threonine-protein kinase PAK 6 (Homo sapiens) (UniProt Q9NQU5)
[7] = molecular target: Dual specificity protein kinase CLK1 (Homo sapiens) (UniProt P49759)
[8] = molecular target: Glycogen synthase kinase-3 beta (Homo sapiens, UniProt P49841)
[9] = molecular target: Serine/threonine-protein kinase PLK1 (Homo sapiens) (UniProt P53350)
[10] = molecular target: T1, Mitogen-activated protein kinase kinase kinase 5 (Homo sapiens) (UniProt Q99683)
T1 sequence (whole entry): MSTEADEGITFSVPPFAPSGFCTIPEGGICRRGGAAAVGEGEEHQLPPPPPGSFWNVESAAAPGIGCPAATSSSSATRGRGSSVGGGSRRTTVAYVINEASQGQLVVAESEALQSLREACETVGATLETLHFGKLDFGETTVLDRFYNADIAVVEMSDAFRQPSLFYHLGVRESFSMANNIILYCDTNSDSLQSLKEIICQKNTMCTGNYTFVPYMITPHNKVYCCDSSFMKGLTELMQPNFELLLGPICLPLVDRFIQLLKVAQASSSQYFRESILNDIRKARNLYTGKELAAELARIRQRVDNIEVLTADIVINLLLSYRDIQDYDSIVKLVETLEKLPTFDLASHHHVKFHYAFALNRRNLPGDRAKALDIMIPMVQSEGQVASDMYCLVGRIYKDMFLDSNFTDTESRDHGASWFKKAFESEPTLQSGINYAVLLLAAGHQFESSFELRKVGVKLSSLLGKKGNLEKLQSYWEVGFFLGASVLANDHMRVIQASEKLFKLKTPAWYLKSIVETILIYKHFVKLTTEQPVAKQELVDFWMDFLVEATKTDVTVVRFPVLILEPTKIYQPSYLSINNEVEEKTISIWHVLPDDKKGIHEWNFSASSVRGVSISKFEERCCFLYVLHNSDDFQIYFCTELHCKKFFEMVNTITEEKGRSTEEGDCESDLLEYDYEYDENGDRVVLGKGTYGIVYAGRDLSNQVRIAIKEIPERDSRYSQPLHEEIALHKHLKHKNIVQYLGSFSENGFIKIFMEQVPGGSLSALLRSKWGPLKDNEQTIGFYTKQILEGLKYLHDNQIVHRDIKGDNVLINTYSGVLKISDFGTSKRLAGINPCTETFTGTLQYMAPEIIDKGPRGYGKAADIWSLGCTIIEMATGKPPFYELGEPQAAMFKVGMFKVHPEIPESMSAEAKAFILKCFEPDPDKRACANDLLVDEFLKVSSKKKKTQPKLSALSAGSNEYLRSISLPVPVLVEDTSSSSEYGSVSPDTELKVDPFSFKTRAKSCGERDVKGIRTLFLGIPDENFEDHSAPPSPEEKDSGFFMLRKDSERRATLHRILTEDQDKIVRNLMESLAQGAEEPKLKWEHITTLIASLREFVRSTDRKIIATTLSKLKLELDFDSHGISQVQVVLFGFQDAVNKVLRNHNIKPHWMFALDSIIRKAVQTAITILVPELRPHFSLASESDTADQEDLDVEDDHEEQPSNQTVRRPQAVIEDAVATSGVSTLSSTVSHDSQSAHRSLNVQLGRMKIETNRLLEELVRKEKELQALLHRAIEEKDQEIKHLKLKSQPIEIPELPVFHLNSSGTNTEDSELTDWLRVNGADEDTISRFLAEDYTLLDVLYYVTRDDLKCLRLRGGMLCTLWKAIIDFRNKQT

[11] = molecular target: TRAF2 and NCK-interacting protein kinase (Homo sapiens) (UniProt Q9UKE5)
[12] = molecular target: Serine/threonine-protein kinase 25 (Homo sapiens) (UniProt O00506)
[13] = molecular target: Serine/threonine-protein kinase 26 (Homo sapiens) (UniProt Q9P289)
[14] = molecular target: Serine/threonine-protein kinase 26 (Homo sapiens) (UniProt Q9P289); remark: listed apart in the source
[15] = molecular target: Calcium/calmodulin-dependent protein kinase type II subunit alpha (Homo sapiens) (UniProt Q9UQM7)
[16] = molecular target: Serine/threonine-protein kinase pim-1 (Homo sapiens) (UniProt P11309)
[17] = molecular target: Calcium/calmodulin-dependent protein kinase type II subunit gamma (Homo sapiens) (UniProt Q13555)
[18] = molecular target: T2, Serine/threonine-protein kinase Nek2 (Homo sapiens) (UniProt P51955)
T2 sequence (whole entry): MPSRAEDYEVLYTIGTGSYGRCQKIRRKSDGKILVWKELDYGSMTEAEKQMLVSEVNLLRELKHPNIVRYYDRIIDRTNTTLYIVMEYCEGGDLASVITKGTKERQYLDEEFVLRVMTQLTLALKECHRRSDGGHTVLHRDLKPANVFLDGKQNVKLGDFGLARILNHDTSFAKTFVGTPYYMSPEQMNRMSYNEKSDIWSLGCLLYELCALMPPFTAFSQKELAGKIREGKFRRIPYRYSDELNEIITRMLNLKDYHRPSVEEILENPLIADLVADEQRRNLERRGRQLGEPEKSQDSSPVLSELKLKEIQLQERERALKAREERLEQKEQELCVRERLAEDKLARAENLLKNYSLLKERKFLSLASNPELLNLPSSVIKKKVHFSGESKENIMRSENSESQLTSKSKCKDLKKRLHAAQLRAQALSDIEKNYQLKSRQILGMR

[19] = molecular target: Serine/threonine-protein kinase 10 (Homo sapiens) (UniProt O94804)
Chain of Serine/threonine-protein kinase 10 (Homo sapiens) (O94804 whole entry, looked up): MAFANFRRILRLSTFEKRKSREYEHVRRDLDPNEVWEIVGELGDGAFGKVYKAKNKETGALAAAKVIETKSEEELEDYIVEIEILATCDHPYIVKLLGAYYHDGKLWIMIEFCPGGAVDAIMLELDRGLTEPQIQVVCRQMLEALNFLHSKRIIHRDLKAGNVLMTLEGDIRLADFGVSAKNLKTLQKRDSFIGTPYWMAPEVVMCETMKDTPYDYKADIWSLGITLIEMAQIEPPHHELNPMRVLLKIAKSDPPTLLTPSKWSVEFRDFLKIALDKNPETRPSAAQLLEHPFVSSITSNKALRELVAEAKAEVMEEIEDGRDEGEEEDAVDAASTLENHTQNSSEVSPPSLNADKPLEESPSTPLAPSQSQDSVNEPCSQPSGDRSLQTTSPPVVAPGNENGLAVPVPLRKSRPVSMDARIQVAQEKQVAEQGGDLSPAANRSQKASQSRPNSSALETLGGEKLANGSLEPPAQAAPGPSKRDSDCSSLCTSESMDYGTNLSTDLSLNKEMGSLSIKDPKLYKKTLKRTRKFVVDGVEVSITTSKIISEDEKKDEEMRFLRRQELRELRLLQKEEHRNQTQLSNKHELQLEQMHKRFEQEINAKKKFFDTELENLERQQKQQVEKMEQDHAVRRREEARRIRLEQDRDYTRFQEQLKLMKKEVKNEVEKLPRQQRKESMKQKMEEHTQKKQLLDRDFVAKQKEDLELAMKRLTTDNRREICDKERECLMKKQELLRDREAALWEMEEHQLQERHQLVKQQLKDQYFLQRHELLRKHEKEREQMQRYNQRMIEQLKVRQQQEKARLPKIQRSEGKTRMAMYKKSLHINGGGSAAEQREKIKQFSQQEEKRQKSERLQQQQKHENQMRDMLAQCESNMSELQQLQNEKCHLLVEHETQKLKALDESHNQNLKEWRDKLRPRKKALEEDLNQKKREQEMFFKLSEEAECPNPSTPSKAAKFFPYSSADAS

Chain of Serine/threonine-protein kinase 26 (Homo sapiens) (Q9P289 2-416 limits assumed): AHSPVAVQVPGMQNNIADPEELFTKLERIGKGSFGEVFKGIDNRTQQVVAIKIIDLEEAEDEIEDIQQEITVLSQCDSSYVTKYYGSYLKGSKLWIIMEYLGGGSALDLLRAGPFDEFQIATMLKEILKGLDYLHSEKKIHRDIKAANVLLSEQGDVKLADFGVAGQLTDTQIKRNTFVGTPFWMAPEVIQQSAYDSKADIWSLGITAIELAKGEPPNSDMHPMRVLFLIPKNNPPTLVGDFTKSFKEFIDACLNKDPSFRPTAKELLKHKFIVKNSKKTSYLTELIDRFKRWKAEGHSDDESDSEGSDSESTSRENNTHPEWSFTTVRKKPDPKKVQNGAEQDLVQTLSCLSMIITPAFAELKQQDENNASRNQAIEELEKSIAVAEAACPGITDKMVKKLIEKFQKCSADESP
Chain of Serine/threonine-protein kinase PAK 6 (Homo sapiens) (Q9NQU5 whole entry, looked up): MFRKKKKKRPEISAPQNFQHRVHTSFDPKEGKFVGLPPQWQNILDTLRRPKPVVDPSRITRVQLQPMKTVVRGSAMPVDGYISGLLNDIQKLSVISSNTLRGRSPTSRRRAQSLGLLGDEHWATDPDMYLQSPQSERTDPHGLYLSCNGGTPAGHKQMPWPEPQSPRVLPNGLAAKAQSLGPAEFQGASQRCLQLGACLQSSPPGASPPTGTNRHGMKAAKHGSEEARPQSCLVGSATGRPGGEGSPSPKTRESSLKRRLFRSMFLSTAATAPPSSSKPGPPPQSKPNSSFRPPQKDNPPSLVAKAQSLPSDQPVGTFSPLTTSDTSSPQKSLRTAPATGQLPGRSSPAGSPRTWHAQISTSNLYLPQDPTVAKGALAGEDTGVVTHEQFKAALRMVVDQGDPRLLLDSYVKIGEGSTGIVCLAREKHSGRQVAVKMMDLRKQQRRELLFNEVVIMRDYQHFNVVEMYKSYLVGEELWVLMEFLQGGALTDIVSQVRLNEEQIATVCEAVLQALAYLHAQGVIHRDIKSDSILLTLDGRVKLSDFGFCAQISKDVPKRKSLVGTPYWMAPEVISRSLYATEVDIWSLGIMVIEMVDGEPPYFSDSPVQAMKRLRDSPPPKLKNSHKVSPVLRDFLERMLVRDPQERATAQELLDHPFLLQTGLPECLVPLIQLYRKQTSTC
Chain of Serine/threonine-protein kinase PLK1 (Homo sapiens) (P53350 whole entry): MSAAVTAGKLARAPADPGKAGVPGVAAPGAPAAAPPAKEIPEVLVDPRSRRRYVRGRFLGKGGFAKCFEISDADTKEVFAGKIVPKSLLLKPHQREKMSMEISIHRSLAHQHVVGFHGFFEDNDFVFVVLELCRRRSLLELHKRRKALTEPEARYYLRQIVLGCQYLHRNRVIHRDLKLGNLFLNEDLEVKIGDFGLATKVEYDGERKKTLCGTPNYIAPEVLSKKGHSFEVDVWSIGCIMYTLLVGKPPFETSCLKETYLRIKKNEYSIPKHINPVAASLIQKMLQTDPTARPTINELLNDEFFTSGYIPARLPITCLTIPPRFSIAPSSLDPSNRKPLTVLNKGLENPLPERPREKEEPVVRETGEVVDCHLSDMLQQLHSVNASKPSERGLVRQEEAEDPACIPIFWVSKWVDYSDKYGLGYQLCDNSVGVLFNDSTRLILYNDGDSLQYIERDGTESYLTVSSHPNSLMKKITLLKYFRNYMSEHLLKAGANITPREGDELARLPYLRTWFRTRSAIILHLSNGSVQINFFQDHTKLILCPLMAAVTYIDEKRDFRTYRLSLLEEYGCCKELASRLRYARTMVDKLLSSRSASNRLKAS
Chain of Calcium/calmodulin-dependent protein kinase type II subunit gamma (Homo sapiens) (Q13555 whole entry): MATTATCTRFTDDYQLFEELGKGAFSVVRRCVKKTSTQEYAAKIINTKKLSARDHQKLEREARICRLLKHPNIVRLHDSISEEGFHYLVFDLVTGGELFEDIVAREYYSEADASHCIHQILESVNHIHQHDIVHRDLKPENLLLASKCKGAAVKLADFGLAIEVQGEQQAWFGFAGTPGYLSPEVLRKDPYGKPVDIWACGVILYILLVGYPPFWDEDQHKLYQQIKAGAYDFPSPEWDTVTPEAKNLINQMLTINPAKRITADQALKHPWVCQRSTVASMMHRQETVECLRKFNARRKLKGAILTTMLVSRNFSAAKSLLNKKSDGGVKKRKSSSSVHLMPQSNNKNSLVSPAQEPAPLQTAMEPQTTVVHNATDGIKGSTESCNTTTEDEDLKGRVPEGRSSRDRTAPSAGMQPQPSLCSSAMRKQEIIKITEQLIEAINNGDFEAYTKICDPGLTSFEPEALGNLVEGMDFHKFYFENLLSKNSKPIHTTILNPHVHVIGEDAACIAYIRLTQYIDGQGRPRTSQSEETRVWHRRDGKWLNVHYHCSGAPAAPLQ
Chain of Dual specificity mitogen-activated protein kinase kinase 2 (P36507 whole entry): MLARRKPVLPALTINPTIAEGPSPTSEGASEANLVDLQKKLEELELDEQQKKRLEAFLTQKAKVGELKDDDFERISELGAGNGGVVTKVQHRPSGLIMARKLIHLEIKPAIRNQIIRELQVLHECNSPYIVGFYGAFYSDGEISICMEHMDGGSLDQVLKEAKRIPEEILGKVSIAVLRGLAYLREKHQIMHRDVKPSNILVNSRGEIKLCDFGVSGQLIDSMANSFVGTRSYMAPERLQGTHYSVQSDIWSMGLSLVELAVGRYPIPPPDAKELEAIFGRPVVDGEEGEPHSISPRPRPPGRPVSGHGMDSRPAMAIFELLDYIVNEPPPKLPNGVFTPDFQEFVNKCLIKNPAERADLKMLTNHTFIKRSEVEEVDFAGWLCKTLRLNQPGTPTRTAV
Chain of Casein kinase I isoform gamma-2 (Homo sapiens) (P78368 whole entry, looked up, canonical isoform): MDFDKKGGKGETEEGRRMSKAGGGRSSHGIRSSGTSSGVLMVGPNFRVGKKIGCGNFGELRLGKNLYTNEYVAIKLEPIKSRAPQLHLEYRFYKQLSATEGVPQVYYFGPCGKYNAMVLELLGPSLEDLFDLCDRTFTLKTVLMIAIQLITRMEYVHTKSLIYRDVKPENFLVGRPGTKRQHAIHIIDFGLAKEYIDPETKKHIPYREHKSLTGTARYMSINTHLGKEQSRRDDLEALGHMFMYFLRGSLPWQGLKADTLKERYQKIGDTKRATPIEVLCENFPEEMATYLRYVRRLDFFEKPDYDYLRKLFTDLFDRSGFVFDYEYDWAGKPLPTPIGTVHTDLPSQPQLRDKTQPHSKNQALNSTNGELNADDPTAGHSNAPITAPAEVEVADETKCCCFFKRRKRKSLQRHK
Chain of Glycogen synthase kinase-3 beta (P49841 whole entry, looked up): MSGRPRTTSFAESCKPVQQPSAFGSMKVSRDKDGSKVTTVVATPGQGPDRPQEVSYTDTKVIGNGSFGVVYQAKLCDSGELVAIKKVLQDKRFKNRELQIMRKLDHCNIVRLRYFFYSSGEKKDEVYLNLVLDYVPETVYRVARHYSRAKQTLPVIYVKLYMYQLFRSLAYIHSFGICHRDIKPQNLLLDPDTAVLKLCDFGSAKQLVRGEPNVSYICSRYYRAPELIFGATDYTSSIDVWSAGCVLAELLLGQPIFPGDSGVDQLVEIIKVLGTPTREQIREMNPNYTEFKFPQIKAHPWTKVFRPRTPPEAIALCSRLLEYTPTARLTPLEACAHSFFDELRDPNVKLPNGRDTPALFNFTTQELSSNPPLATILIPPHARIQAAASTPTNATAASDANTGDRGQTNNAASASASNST
Chain of Calcium/calmodulin-dependent protein kinase type II subunit alpha (Homo sapiens) (Q9UQM7 whole entry): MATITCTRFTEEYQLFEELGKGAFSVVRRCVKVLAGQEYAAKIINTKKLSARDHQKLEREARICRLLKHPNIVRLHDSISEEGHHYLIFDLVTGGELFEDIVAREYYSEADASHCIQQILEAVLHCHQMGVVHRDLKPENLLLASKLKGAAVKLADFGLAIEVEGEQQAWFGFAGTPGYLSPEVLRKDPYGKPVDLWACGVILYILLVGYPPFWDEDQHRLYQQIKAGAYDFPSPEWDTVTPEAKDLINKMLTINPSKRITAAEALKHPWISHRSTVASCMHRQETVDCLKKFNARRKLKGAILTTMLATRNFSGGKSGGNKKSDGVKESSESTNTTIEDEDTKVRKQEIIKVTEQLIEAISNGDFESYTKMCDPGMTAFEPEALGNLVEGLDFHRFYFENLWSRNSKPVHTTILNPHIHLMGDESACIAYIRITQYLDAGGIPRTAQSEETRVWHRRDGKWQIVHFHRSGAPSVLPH

SMILES	ΔTm [1]	ΔTm [2]	ΔTm [3]	ΔTm [4]	ΔTm [5]	ΔTm [6]	ΔTm [7]	ΔTm [8]	ΔTm [9]	ΔTm [10]	ΔTm [11]	ΔTm [12]	ΔTm [13]	ΔTm [14]	ΔTm [15]	ΔTm [16]	ΔTm [17]	ΔTm [18]	ΔTm [19]
Cc1cc(C=C2C(=O)C=CC2=O)cc(C)c1O	-2 °C	-2.2 °C	1 °C	0.5 °C	1.1 °C	-2.6 °C	-0.4 °C	-2.9 °C	0.6 °C	2.6 °C	-4.1 °C	0.4 °C	-0.1 °C	0.4 °C	1.2 °C	-1.4 °C	0.3 °C	0.8 °C	1.2 °C
O=S(=O)(c1cccc2c(Cl)cccc12)N1CCCNCC1	-0.3 °C	0.3 °C	0.8 °C	0.3 °C	0.5 °C	-0.1 °C	2 °C	0.2 °C	0 °C	0.6 °C	0.1 °C	0.2 °C	-0.1 °C	0 °C	0.5 °C	2.7 °C	0.3 °C	0.9 °C	0.4 °C
CC(C)n1cnc2/c(=N/c3cccc(Cl)c3)nc(NCCO)[nH]c21	0.2 °C	-0.1 °C	1.6 °C	4.5 °C	-0.4 °C	3.8 °C	5.1 °C	0.8 °C	7.5 °C	0.4 °C	3.1 °C	2.9 °C	0.9 °C	2.1 °C	0.7 °C	-0.3 °C	1.1 °C	1.3 °C	2 °C
CC(C)(C)n1nc(-c2ccc(Cl)cc2)c2c(N)ncnc21	3.3 °C	-0.4 °C	0.7 °C	0.8 °C	-0.1 °C	-0.1 °C	2.1 °C	0.5 °C	0.9 °C	0.3 °C	1.4 °C	1.2 °C	-0.3 °C	-0.5 °C	0.5 °C	0.1 °C	0.4 °C	0.3 °C	4.7 °C
O=C1Nc2ccccc2/C1=C/c1cnc[nH]1	2 °C	3.7 °C	6.6 °C	1.6 °C	-0.3 °C	1.9 °C	3.3 °C	7.1 °C	1.3 °C	5 °C	6.1 °C	6.3 °C	4.5 °C	4.3 °C	0.7 °C	3 °C	1.2 °C	2 °C	4.2 °C
C[C@@H]1C[C@H]2O[C@@H]2/C=C\C=C\C(=O)Cc2c(Cl)c(O)cc(O)c2C(=O)O1 [RADICICOL]	0 °C	-0.2 °C	0.5 °C	0 °C	-0.4 °C	0.3 °C	0 °C	-0.3 °C	0.2 °C	-0.2 °C	-0.3 °C	-0.6 °C	0.9 °C	-0.2 °C	0 °C	-0.1 °C	0 °C	0.2 °C	-0.4 °C
COc1ccc(CNc2nc(N(CCO)CCO)nc3c2ncn3C(C)C)cc1	0.1 °C	0.3 °C	1.6 °C	1.6 °C	-0.3 °C	1.2 °C	2.4 °C	0.8 °C	0.9 °C	2 °C	0.5 °C	1.5 °C	1 °C	0.8 °C	0 °C	-1 °C	0.3 °C	1 °C	0.7 °C
O=c1c2ccccc2[nH]c(=S)n1CCN1CCC(=C(c2ccc(F)cc2)c2ccc(F)cc2)CC1 [DIACYLGLYCEROL KINASE INHIBITOR II]	0.3 °C	-0.5 °C	0.9 °C	0.5 °C	-5.4 °C	-0.1 °C	0.3 °C	1.9 °C	0.6 °C	-0.7 °C	0 °C	1.5 °C	2.1 °C	2.4 °C	-0.6 °C	0 °C	-0.5 °C	1.5 °C	3.6 °C
CCOc1cc2ncnc(Nc3cccc(Br)c3)c2cc1OCC	0.8 °C	0 °C	0.4 °C	0.6 °C	0.6 °C	0.8 °C	2 °C	2.8 °C	0.2 °C	0.6 °C	3.1 °C	1.5 °C	0.8 °C	1.3 °C	0.7 °C	0.2 °C	0.5 °C	1.1 °C	10.3 °C
Brc1c(Br)c(Br)c2[nH]nnc2c1Br [TETRABROMOBENZOTRIAZOLE]	1.6 °C	-0.4 °C	–	0.3 °C	-0.7 °C	-0.1 °C	3.6 °C	2.4 °C	2.3 °C	1.9 °C	-0.8 °C	0.7 °C	1.3 °C	1.2 °C	1.2 °C	3.7 °C	0.6 °C	-0.1 °C	0 °C
CN(C)CCCn1cc(C2=C(c3c[nH]c4ccccc34)C(=O)NC2=O)c2ccccc21 [GF-109203]	0.1 °C	0.7 °C	1.7 °C	0.5 °C	1.1 °C	2.4 °C	6.3 °C	8.7 °C	1 °C	0.9 °C	2 °C	2.7 °C	1.7 °C	3.1 °C	2.4 °C	–	2.9 °C	0.7 °C	6.7 °C
